Measurements as given in patent US7319101B2, “COMT inhibitors for the treatment of depression and impaired cognition” (Hoffmann-La Roche Inc., priority 2003, dated 2008).

Key:
[1] = molecular target: T1, catechol-O-methyltransferase (COMT) obtained from rat liver (Rattus norvegicus, UniProt P22734); experiment: COMT inhibition, radiochemical assay with rat liver homogenate (Zürcher et al.); assay type: biochemical; conditions: rat liver tissue extract; substrate benzene-1,2-diol 2.5 mM, [3H]SAM 183 μM; 15 min preincubation at 37° C., pH 7.6
T1 construct: from tissue; host or cells: rat liver homogenate
T1 sequence (P22734 1-264): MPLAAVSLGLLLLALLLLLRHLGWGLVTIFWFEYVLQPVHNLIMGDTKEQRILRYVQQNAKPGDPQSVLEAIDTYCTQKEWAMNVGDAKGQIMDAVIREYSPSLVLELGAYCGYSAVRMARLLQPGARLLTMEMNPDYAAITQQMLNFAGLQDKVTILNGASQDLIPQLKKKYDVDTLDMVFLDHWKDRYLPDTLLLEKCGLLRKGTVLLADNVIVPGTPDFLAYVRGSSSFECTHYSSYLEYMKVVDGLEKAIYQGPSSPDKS
Protocol: The inhibitory activity can be determined in vitro with COMT obtained from rat liver. Rat liver homogenate is incubated in the presence of a suitable substrate as described by Zürcher et al. in J. Neurochem. 1982, 38, 191-195 and the COMT activity is measured.
IC50 values were determined as follows: The inhibitors were dissolved in Me2SO as 1.2 mM stock solution and further diluted with Me2SO. The reactions were performed in standard polypropylene vials. 25 μl of the inhibitor in varying concentrations from 10^−4 to 10^−9 mol L^−1 were mixed with 215 μl freshly prepared buffer-substrate mixture consisting of 170 μl potassium phosphate buffer (0.1 mol L^−1, pH 7.6), 10 μl MgCl2, (0.1 mol L^−1), 10 μl dithiothreitol (0.065 mol L^−1) and 25 μl of tissue extract. The enzyme preparations were preincubated for 15 min at 37° C. The reaction was started by adding 30 μl substrate (benzene-1,2-diol, 0.025 mol L^−1), 10 μl [^3H]SAM (5.5 mmol L^−1, specific activity: 13.36 Bq mol^−1 (3.61 Cimol^−1) and 20 μl deionized H2O, reaching a final substrate concentration of 2.5 mM and a final [^1H]/[^3H]SAM concentration of 183 μM. The reaction was stopped after incubating the vials in a water-bath at 37° C. for 15 min by addition of 200 μl HOAc (5.7%) containing guaiacol (0.1 g L^−1). The reaction vessels were transferred into polyethylene scintillation vials and 3 ml of scintillation fluid (5 g butyl-PBD, dissolved in 200 ml toluene, made up to 1 L with n-hexane) was added.
The samples were counted in a Beckmann LS 6000 TA scintillation counter.

Compound | IC50 [1] | melting point
Nc1ncnc2c1ncn2[C@@H]1O[C@H](/C=C/CNC(=O)c2cccc(O)c2O)C(O)C1O (stereo in doubt) [Example 1, N1-{(E)-3-[(3aR,4R,6R,6aR)-5-(6-amino-9H-purin-9-yl)-3,4-dihydroxytetrahydrofuran-2-yl]prop-2-enyl}-2,3-dihydroxy-benzamide] | 2.6 µM | 134 °C (dec.)
Nc1ncnc2c1ncn2[C@@H]1O[C@H](/C=C/CNC(=O)c2cc(C(=O)c3ccncc3)cc(O)c2O)C(O)C1O (stereo in doubt) [Example 5, N1-{(E)-3-[(3aR,4R,6R,6aR)-5-(6-amino-9H-purin-9-yl)-3,4-dihydroxytetrahydrofuran-2-yl]prop-2-enyl}-5-(pyridine-4-carbonyl)-2,3-dihydroxy-benzamide] | 0.042 µM | 
Nc1ncnc2c1ncn2[C@@H]1O[C@H](/C=C/CNC(=O)c2cc(C(=O)C3CCCCC3)cc(O)c2O)C(O)C1O (stereo in doubt) [Example 6, N1-{(E)-3-[(3aR,4R,6R,6aR)-5-(6-amino-9H-purin-9-yl)-3,4-dihydroxytetrahydrofuran-2-yl]prop-2-enyl}-5-cyclohexanecarbonyl-2,3-dihydroxy-benzamide] | 0.083 µM | 
Nc1ncnc2c1ncn2[C@@H]1O[C@H](/C=C/CNC(=O)c2cc(-c3ccc(F)cc3)cc(O)c2O)C(O)C1O (stereo in doubt) [Example 8, N1-{(E)-3-[(3aR,4R,6R,6aR)-5-(6-amino-9H-purin-9-yl)-3,4-dihydroxytetrahydrofuran-2-yl]prop-2-enyl}-5-(4-fluoro-phenyl)-2,3-dihydroxy-benzamide] | 0.021 µM | 
Cc1ccc(-c2cc(O)c(O)c(C(=O)NC/C=C/[C@H]3O[C@@H](n4cnc5c(N)ncnc54)C(O)C3O)c2)cc1 (stereo in doubt) [Example 9, N1-{(E)-3-[(3aR,4R,6R,6aR)-5-(6-amino-9H-purin-9-yl)-3,4-dihydroxytetrahydrofuran-2-yl]prop-2-enyl}-5-p-tolyl-2,3-dihydroxy-benzamide] | 0.023 µM | 
Nc1ncnc2c1ncn2[C@@H]1O[C@H](/C=C/CNC(=O)c2cc(-c3nccs3)cc(O)c2O)C(O)C1O (stereo in doubt) [Example 10, N1-{(E)-3-[(3aR,4R,6R,6aR)-5-(6-amino-9H-purin-9-yl)-3,4-dihydroxytetrahydrofuran-2-yl]prop-2-enyl}-5-thiazol-2-yl-2,3-dihydroxy-benzamide] | 0.027 µM | 
Nc1ncnc2c1ncn2[C@@H]1O[C@H](/C=C/CNC(=O)c2cc(-c3ccncc3)cc(O)c2O)C(O)C1O (stereo in doubt) [Example 12, N1-{(E)-3-[(3aR,4R,6R,6aR)-5-(6-amino-9H-purin-9-yl)-3,4-dihydroxytetrahydrofuran-2-yl]prop-2-enyl}-5-pyridin-4-yl-2,3-dihydroxy-benzamide] | 0.023 µM | 133 to 137 °C (dec.)
Cc1ccc(Cc2cc(O)c(O)c(C(=O)NC/C=C/[C@H]3O[C@@H](n4cnc5c(N)ncnc54)C(O)C3O)c2)cc1 (stereo in doubt) [Example 13, N1-{(E)-3-[(3aR,4R,6R,6aR)-5-(6-amino-9H-purin-9-yl)-3,4-dihydroxytetrahydrofuran-2-yl]prop-2-enyl}-5-(4-methyl-benzyl)-2,3-dihydroxy-benzamide] | 0.608 µM | 
CN(C)C(=O)/C=C/c1cc(O)c(O)c(C(=O)NC/C=C/[C@H]2O[C@@H](n3cnc4c(N)ncnc43)C(O)C2O)c1 (stereo in doubt) [Example 15, N1-{(E)-3-[(3aR,4R,6R,6aR)-5-(6-amino-9H-purin-9-yl)-3,4-dihydroxytetrahydrofuran-2-yl]prop-2-enyl}-5-((E)-2-dimethylcarbamoyl-vinyl)-2,3-dihydroxy-benzamide] | 0.097 µM | 
Cc1ccc(S(=O)(=O)c2cc(O)c(O)c(C(=O)NC/C=C/[C@H]3O[C@@H](n4cnc5c(N)ncnc54)C(O)C3O)c2)cc1 (stereo in doubt) [Example 18, N1-{(E)-3-[(3aR,4R,6R,6aR)-5-(6-amino-9H-purin-9-yl)-3,4-dihydroxytetrahydrofuran-2-yl]prop-2-enyl}-5-(toluene-4-sulfonyl)-2,3-dihydroxy-benzamide] | 0.213 µM | 
Cc1ccc(C(=O)c2cc(O)c(O)c(C(=O)NC/C=C/[C@H]3O[C@@H](n4cnc5c(N)ncnc54)C(O)C3O)c2)cc1 (stereo in doubt) [Example 19, N1-{(E)-3-[(3aR,4R,6R,6aR)-5-(6-amino-9H-purin-9-yl)-3,4-dihydroxy-tetrahydrofuran-2-yl]prop-2-enyl}-5-(4-methyl-benzoyl)-2,3-dihydroxy-benzamide] | 0.034 µM | 

Now from value to compound:

IC50 [1] | melting point | Compound
0.028 µM | 123 °C (dec.) | Nc1ncnc2c1ncn2[C@@H]1O[C@H](/C=C/CNC(=O)c2cc(Br)cc(O)c2O)C(O)C1O (stereo in doubt) [Example 2, N1-{(E)-3-[(3aR,4R,6R,6aR)-5-(6-amino-9H-purin-9-yl)-3,4-dihydroxytetrahydrofuran-2-yl]prop-2-enyl}-5-bromo-2,3-dihydroxy-benzamide]
0.029 µM |  | N#Cc1cc(O)c(O)c(C(=O)NC/C=C/[C@H]2O[C@@H](n3cnc4c(N)ncnc43)C(O)C2O)c1 (stereo in doubt) [Example 3, N1-{(E)-3-[(3aR,4R,6R,6aR)-5-(6-amino-9H-purin-9-yl)-3,4-dihydroxytetrahydrofuran-2-yl]prop-2-enyl}-5-cyano-2,3-dihydroxy-benzamide]
0.039 µM |  | Nc1ncnc2c1ncn2[C@@H]1O[C@H](/C=C/CNC(=O)c2cc(C(=O)C(F)(F)F)cc(O)c2O)C(O)C1O (stereo in doubt) [Example 4, N1-{(E)-3-[(3aR,4R,6R,6aR)-5-(6-amino-9H-purin-9-yl)-3,4-dihydroxytetrahydrofuran-2-yl]prop-2-enyl}-5-(2,2,2-trifluoro-acetyl)-2,3-dihydroxy-benzamide]
0.044 µM |  | Nc1ncnc2c1ncn2[C@@H]1O[C@H](/C=C/CNC(=O)c2cc(Cl)cc(O)c2O)C(O)C1O (stereo in doubt) [Example 7, N1-{(E)-3-[(3aR,4R,6R,6aR)-5-(6-amino-9H-purin-9-yl)-3,4-dihydroxytetrahydrofuran-2-yl]prop-2-enyl}-5-chloro-2,3-dihydroxy-benzamide]
2 µM |  | CN(C)C(=O)c1cc(O)c(O)c(C(=O)NC/C=C/[C@H]2O[C@@H](n3cnc4c(N)ncnc43)C(O)C2O)c1 (stereo in doubt) [Example 14, N1-{(E)-3-[(3aR,4R,6R,6aR)-5-(6-amino-9H-purin-9-yl)-3,4-dihydroxytetrahydrofuran-2-yl]prop-2-enyl}-5-dimethylcarbamoyl-2,3-dihydroxy-benzamide]
0.035 µM |  | Nc1ncnc2c1ncn2[C@@H]1O[C@H](/C=C/CNC(=O)c2cc(C(F)(F)F)cc(O)c2O)C(O)C1O (stereo in doubt) [Example 16, N1-{(E)-3-[(3aR,4R,6R,6aR)-5-(6-amino-9H-purin-9-yl)-3,4-dihydroxytetrahydrofuran-2-yl]prop-2-enyl}-5-trifluoromethyl-2,3-dihydroxy-benzamide]
0.009 µM |  | Nc1ncnc2c1ncn2C1OC(C=CCNC(=O)c2cc([N+](=O)[O-])cc(O)c2O)C(O)C1O (stereo not drawn) [comparative example, N-{3-[5-(6-Amino-purin-9-yl)-3,4-dihydroxy-tetrahydro-furan-2-yl]-allyl}-2,3-dihydroxy-5-nitro-benzamide, reference compound]
